From ChEMBL document CHEMBL1201862, “PubChem BioAssay data set” (2004)
Calls of active or inactive are those of the source.

How the values were obtained:
[1] = HepG2 cell cytotoxicity, dose response, cytotoxicity control, plate reader, cherry-pick, antagonist series (AID 743416); type: functional, cell-based
[2] = LGR2 antagonists, dose response, cell-based, HEK293, CRE-luciferase reporter, cherry pick, set 2 (AID 743343); type: functional;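 further: transfected cells were stimulated with diluted bursicon conditioned medium after compound addition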
[3] = MC4R antagonists, dose response, counter-screen for LGR2 antagonist project, cell-based, plate reader, cherry pick (AID 743444); type: functional;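 further: transfected HEK 293 cells stimulated with alpha-MSH peptide; potency of inhibitors of the alpha-MSH evoked signal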
[4] = biological target: Mitogen-activated protein kinase 10 (Homo sapiens, UniProt P53779); experiment: Dose response biochemical screening assay for inhibitors of c-Jun N-Terminal Kinase 3 (JNK3). [Related pubchem assays: 746 ]
Paired box protein Pax-8 = Paired box protein Pax-8 (Homo sapiens, UniProt Q06710); experiment: inhibitors of PAX8-driven TPO luciferase reporter, dose response, RMG-I cells, cherry-pick (AID 687027); type: functional, cell-based;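 further: luciferase reporter driven by Pax8 target thyroperoxidase promoter measured by SteadyGlo luminescence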
[5] = A2780 ovarian cancer cell cytotoxicity, dose response, cytotoxicity control, plate reader, dry powder samples (AID 743046); type: functional, cell-based
[6] = NIH:OVCAR-3 ovarian cancer cell cytotoxicity, dose response, PAX8 inhibitor project, plate reader, dry powder samples (AID 743044); type: functional, cell-based
[7] = cytotoxicity in OVCAR8 ovarian cancer cells, dose response, PAX8 project, cell-based, plate reader, dry powder samples (AID 743197); type: functional; details: OVCAR-8
Estrogen receptor = biological target: T1, Estrogen receptor (Homo sapiens, UniProt P03372);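 further: potency for inhibiting coactivator peptide recruitment to the receptor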
T1 sequence (P03372 whole entry): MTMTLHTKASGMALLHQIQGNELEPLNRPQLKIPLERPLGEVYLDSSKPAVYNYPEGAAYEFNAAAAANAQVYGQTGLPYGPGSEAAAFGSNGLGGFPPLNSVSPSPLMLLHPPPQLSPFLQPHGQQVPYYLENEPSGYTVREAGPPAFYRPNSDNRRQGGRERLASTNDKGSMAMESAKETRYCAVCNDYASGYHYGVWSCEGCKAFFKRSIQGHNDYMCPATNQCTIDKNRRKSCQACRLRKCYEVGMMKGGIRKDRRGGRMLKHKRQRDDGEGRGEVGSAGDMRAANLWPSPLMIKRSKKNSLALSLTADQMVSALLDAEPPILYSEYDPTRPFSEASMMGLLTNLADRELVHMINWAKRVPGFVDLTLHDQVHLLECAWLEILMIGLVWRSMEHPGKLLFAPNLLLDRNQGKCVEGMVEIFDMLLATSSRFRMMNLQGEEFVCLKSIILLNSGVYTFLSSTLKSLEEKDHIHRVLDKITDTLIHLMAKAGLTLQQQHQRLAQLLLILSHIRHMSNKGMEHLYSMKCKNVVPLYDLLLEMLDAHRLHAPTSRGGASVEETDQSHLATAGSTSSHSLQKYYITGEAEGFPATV

BJ [8] = experiment: cytotoxicity toward BJ-TERT fibroblasts, dose response, cell-based, RAS-independent, luminescence (AID 1933); type: functional; details: Homo sapiens
BJ [9] = experiment: cells; type: functional, cell-based; details: Homo sapiens
Cytochrome P450 2C19 = Cytochrome P450 2C19 (Homo sapiens, UniProt P33261); experiment: Cytochrome panel assay with activity outcomes. Panel member name: p450-cyp2c19 Compounds with AC50 equal or less than 10 uM are considered active; type: functional; details: read-out: AC50
Cytochrome P450 2C9 = Cytochrome P450 2C9 (Homo sapiens, UniProt P11712)
[10] = P. falciparum 3D7-ScDHODH growth inhibitors, dose response, SYBR Green, dry powder samples (AID 1159570); type: functional, cell-based;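 further: parasite growth measured after 72 hours of compound exposure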
[11] = HepG2 cell cytotoxicity, dose response, cytotoxicity control, plate reader, dry powder samples (AID 1159569); type: functional, cell-based;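 further: inhibitor potency with signal falling toward the positive control level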
[12] = P. falciparum Dd2 growth inhibitors, dose response, SYBR Green, cherry-picked samples (AID 1159567); type: functional, cell-based
[13] = P. falciparum Dd2 growth inhibitors, dose response, SYBR Green, dry powder samples (AID 1159566); type: functional, cell-based;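 further: potency for growth inhibition with lower SYBR green DNA signal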
[14] = P. falciparum ATP4 D1247Y mutant growth inhibitors, dose response, NITD609-resistant line, SYBR Green, dry powder (AID 1159571); type: functional, cell-based;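 further: parasites synchronized at ring stage by sorbitol before testing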
[15] = biological target: E3 ubiquitin-protein ligase Mdm2 (Homo sapiens, UniProt Q00987); experiment: enhancers of MDM2-luciferase reporter signal, concentration-effect titration, project on inhibitors of MDM2 ubiquitin ligase, cellular assay, luminescent readout, 384-well plate format (AID 1394); type: functional;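 further: MDM2 E3 inhibitors raise luminescence so EC50 is for signal enhancement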
[16] = biological target: DNA dC->dU-editing enzyme APOBEC-3G (Homo sapiens, UniProt Q9HC16); experiment: Dose Response confirmation of small molecule APOBEC3G DNA Deaminase Inhibitors via a fluorescence-based single-stranded DNA deaminase assay. [Related pubchem assays (depositor defined):AID493012, AID493028]; type: functional
[17] = THP-1 cell cytotoxicity, dose response, cytotoxicity control for non-replicating M. tuberculosis project (AID 489025); type: functional
[18] = cytotoxicity in HEK-293T cells, dose response, cytotoxicity control for BCR NF-kB inhibitor project, luminescence, B-cell screen hits (AID 489021); type: functional, cell-based;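 further: HEK-293T cells carrying an NF-kB luciferase reporter; cells exposed to compound for about 14 hours before viability readout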
[19] = inhibitors of PGC1a acetylation in cells, dose response, cell-based, cherry-picked samples (AID 720514); type: functional;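 further: potency may reflect raised or lowered acetylation signal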
Trypsin = Trypsin (Sus scrofa, UniProt P00761); experiment: porcine trypsin inhibitors, dose response, selectivity assay for Rce1 protease inhibitor project, biochemical, quenched peptide fluorescence, cherry-pick (AID 488789)
CAAX prenyl protease 2 = biological target: T2, CAAX prenyl protease 2 (Saccharomyces cerevisiae S288c, UniProt Q03530); type: biochemical
T2 sequence (Q03530 whole entry): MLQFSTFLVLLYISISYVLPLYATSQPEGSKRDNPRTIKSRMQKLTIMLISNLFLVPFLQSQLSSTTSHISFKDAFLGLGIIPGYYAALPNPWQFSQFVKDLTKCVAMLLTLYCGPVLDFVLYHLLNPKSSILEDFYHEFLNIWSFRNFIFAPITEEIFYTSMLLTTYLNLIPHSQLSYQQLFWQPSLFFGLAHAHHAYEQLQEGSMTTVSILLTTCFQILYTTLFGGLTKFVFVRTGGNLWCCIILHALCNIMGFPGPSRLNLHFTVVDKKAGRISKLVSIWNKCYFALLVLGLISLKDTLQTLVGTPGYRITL

[20] = HeLa cell cytotoxicity, dose response, cytotoxicity control for MgcRacGAP inhibitor project (AID 624300); type: functional
[21] = biological target: T3, Rac GTPase-activating protein 1 (Homo sapiens, UniProt Q9H0H5); experiment: MgcRacGAP GTPase-activating activity inhibitors, confirmation, biochemical, ADP Hunter fluorescence, primary and confirmatory (AID 624330); type: functional
T3 sequence (Q9H0H5 whole entry): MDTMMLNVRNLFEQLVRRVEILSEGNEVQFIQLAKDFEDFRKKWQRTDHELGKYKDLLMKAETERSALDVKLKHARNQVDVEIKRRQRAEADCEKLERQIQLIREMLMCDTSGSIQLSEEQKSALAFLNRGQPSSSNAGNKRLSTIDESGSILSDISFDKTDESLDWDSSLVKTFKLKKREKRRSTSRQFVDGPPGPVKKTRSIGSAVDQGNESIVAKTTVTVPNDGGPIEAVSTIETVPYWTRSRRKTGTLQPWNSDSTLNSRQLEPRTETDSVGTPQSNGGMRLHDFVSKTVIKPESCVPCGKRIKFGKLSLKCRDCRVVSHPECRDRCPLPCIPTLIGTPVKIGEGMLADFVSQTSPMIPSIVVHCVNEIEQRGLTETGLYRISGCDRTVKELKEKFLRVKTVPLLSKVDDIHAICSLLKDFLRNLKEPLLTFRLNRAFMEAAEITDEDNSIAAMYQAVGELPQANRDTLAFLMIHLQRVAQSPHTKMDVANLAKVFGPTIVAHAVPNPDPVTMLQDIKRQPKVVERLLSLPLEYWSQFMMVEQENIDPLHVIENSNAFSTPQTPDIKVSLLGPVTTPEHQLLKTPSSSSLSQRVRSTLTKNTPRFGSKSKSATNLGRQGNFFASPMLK

[22] = biological target: Voltage-dependent T-type calcium channel subunit alpha-1H (Homo sapiens, UniProt O95180); type: functional;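 further: channel activity triggered by adding a high calcium stimulation buffer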

Sequence of Mitogen-activated protein kinase 10 (P53779 whole entry): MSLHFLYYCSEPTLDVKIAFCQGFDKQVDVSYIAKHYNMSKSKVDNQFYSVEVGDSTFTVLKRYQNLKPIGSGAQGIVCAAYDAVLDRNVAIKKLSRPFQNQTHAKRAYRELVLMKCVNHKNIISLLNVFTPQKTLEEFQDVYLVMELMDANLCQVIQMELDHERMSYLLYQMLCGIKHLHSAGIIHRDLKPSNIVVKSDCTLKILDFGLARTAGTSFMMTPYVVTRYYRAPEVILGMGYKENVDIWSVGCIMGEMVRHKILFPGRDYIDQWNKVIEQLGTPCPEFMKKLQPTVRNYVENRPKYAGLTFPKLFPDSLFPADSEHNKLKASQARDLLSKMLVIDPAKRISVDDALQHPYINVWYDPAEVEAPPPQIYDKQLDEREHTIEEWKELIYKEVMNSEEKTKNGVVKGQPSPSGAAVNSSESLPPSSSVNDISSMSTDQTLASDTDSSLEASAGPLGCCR
Sequence of Paired box protein Pax-8 (Q06710 whole entry): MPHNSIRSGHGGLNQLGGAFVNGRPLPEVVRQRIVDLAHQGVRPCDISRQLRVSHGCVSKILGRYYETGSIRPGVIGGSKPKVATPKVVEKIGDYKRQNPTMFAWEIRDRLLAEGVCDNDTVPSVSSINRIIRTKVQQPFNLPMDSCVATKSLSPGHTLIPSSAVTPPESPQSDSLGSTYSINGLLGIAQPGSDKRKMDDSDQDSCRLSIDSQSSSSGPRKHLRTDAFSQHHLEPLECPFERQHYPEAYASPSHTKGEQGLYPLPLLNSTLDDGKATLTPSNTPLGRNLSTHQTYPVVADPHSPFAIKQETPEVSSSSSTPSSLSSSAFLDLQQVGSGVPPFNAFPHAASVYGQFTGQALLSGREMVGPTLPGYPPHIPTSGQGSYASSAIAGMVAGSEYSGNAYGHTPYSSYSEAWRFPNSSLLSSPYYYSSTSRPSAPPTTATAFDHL
Sequence of Cytochrome P450 2C19 (P33261 whole entry): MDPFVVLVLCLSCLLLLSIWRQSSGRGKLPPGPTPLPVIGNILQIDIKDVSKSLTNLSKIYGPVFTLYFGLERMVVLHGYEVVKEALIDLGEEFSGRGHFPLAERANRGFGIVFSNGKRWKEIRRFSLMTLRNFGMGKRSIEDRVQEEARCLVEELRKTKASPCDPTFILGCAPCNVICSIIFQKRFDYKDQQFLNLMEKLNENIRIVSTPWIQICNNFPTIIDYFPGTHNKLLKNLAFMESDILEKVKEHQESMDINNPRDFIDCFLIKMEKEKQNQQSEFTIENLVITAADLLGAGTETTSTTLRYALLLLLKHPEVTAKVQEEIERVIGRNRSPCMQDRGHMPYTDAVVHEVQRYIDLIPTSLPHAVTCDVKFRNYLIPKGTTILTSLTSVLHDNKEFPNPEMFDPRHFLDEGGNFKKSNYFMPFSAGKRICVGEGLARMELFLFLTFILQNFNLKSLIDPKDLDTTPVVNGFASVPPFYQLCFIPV
Sequence of E3 ubiquitin-protein ligase Mdm2 (Q00987 whole entry): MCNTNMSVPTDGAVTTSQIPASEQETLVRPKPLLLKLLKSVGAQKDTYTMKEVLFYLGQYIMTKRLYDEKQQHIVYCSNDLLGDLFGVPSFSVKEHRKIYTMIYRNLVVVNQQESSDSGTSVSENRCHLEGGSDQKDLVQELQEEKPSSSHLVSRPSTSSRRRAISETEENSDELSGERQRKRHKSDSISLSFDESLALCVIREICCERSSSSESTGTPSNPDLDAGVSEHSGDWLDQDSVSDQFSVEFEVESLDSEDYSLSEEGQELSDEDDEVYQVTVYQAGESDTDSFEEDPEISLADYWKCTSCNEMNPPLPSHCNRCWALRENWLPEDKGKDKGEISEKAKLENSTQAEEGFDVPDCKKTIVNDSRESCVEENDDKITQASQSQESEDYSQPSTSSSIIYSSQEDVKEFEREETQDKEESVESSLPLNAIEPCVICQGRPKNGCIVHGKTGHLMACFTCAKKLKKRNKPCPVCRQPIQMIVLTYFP
Sequence of Trypsin (P00761 whole entry): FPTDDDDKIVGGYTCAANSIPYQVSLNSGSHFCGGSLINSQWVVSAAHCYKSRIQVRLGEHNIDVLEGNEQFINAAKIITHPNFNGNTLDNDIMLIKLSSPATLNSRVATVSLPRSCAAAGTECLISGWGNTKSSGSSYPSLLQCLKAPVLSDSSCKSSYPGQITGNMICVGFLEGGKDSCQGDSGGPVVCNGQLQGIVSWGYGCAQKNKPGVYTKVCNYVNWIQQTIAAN
Sequence of Cytochrome P450 2C9 (P11712 whole entry): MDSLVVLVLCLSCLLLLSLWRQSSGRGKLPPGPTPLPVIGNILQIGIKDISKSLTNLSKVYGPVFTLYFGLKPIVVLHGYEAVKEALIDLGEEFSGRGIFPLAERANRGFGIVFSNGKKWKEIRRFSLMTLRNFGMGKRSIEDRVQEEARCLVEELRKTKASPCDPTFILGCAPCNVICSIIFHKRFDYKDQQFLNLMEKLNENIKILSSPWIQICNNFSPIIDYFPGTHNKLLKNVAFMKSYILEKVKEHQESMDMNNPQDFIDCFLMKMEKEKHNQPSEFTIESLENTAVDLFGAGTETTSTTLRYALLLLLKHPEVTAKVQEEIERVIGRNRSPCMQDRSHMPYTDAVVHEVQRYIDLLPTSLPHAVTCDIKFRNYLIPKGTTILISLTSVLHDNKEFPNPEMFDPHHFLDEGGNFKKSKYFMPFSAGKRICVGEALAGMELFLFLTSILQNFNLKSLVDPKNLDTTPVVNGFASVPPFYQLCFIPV
Sequence of DNA dC->dU-editing enzyme APOBEC-3G (Q9HC16 whole entry): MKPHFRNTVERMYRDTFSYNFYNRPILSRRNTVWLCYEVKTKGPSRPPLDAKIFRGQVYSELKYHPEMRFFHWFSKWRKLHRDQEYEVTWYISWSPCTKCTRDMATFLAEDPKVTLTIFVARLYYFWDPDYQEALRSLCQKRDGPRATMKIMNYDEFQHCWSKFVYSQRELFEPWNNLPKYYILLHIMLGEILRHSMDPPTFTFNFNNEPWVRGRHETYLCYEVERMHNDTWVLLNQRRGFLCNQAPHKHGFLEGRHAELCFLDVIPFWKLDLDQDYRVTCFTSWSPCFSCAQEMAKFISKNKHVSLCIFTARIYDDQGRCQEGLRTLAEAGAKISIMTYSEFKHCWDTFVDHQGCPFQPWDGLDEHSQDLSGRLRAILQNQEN

Cc1ccc(-c2csc(Nc3ccccn3)n2)cc1
AC50 [1]: > 52 µM (inactive)
AC50 [2]: 2.74 µM (active)
AC50 [3]: 3.3 µM (active)

C/C(=N\CCCn1ccnc1)C1=C(O)c2ccccc2C1=O
IC50 [4]: 35.7 µM (not active)

COc1ccc(S(=O)(=O)Nc2ccc3c(c2)C(=O)N([C@@H](C)CO)C[C@H](C)[C@@H](CN(C)Cc2ccc(C(F)(F)F)cc2)OCCCC[C@@H](C)O3)cc1
AC50 (Paired box protein Pax-8): 9.62 µM (active)
AC50 [5]: 56.2 µM (active)
AC50 [6]: 23 µM (active)
AC50 [7]: 23.6 µM (active)

C=CCNc1nc(-c2cccc(OC)c2O)nc2ccccc12
IC50 (Estrogen receptor): > 50 µM (not active)

Cc1ccc(Nc2nc(N)nc(-c3oc4ccccc4c3C)n2)cc1
EC50 (BJ [8]): < 0.12 µM (active)
EC50 (BJ [9]): 0.228 µM (active)

C[C@H]1CCCCO[C@@H](CN(C)Cc2ccc(Cl)c(Cl)c2)[C@@H](C)CN([C@@H](C)CO)C(=O)c2cc(NC(=O)Nc3ccc(C(F)(F)F)cc3)ccc2O1
AC50 (Paired box protein Pax-8): 4.77 µM (active)
AC50 [5]: 59.1 µM (active)
AC50 [6]: 22.2 µM (active)
AC50 [7]: > 70 µM (inactive)

Brc1ccc2cccnc2c1
AC50 (Cytochrome P450 2C19): 0.316 µM (inconclusive)
AC50 (Cytochrome P450 2C9): inconclusive

CCOc1ccc(C2CC(=O)NC3=C2C(=O)CCC3)cc1 (stereo unspecified)
IC50 [4]: > 93.1 µM (not active)

CN(C)C(=O)c1ccc(-c2ccc([C@@H]3[C@@H]4CN(Cc5ccc6c(c5)OCO6)C[C@H]3N4)cc2)cc1
AC50 [10]: 4.61 µM (active)
AC50 [11]: 22.6 µM (active)
AC50 [12]: 1.13 µM (active)
AC50 [13]: 2.25 µM (active)
AC50 [14]: 2.58 µM (active)

CC(C)=C1SC(N2CCN(c3cccc(C(F)(F)F)c3)CC2)=NC1=O
EC50 [15]: 18.7 µM (not active)

CCOc1ccc(C(S)=NC2CCCCC2)cc1OC
IC50 [16]: 64.7 µM (active)

COc1ccc2c3c(n(C)c2c1)[C@H](CO)N(C(=O)Nc1ccc(F)cc1)CC31CCN(Cc2cccnc2)CC1
AC50 [10]: 1.52 µM (active)
AC50 [11]: > 100 µM (inactive)
AC50 [12]: 3.02 µM (active)
AC50 [13]: 1.61 µM (active)
AC50 [14]: 2.03 µM (active)

C[C@@H]1CN([C@H](C)CO)C(=O)c2cc(NC(=O)CCCCCC(=O)Nc3ccccc3N)ccc2O[C@@H](C)CCCCO[C@H]1CN(C)Cc1ccc(Cl)c(Cl)c1
AC50 (Paired box protein Pax-8): 12.2 µM (active)
AC50 [7]: 65.4 µM (active)

Cn1cccc1/C=N\NC(=O)C1COc2ccccc2O1 (stereo unspecified)
CC50 [17]: > 40 µM (active)

Cn1c(=O)cc(OCC(=O)N2CCC3(CC2)OCCO3)c2ccccc21
IC50 [18]: > 80 µM (inactive)

O=C(c1ccc(F)cc1)N(C(=O)c1ccc(F)cc1)c1ncccn1
AC50 [19]: 25.9 µM (active)

COC(=O)c1ccc2c(=O)n(CCCCCC(=O)NCc3ccc4c(c3)OCO4)c(=O)[nH]c2c1
IC50 (Estrogen receptor): 14.8 µM (active)

Cn1c(=O)n(C)c2cc(NC(=O)CSc3nnc(-c4ccccc4O)n3-c3ccccc3)ccc21
IC50 [18]: > 80 µM (inactive)

CCCN1Cc2cccc(C(=O)NCc3ccc4c(c3)OCO4)c2C1=O
IC50 [4]: 31.8 µM (not active)

Cc1ccc(-c2ccc([C@H]3[C@@H](CO)N4CCCCN(C(=O)Nc5cccc(F)c5)C[C@H]34)cc2)cc1
AC50 (Paired box protein Pax-8): 21.7 µM (active)
AC50 [5]: 39.1 µM (active)
AC50 [6]: 37.5 µM (active)

Cc1cc(OCC(=O)N2CCC(C(=O)O)CC2)c2c(C)cc(=O)oc2c1
AC50 (Trypsin): 21.7 µM (active)
AC50 (CAAX prenyl protease 2): 15.6 µM (active)

CC(=O)N1CCN(c2ccc(Nc3ncnc4c3oc3ccccc34)cc2)CC1
CC50 [20]: 58.3 µM (active)
IC50 [21]: 46 µM (active)

CC(NC(=O)CCSc1nc(-c2ccc3c(c2)OCO3)cc(C(F)(F)F)n1)c1ccccc1 (stereo unspecified)
IC50 (Estrogen receptor): > 50 µM (not active)
EC50 [22]: 7.03 µM (active)
AC50 (Cytochrome P450 2C19): 0.398 µM (inconclusive)

CCCc1cc(S)n2c(nc3ccccc32)c1C#N
CC50 [20]: 100 µM (active)
IC50 [21]: 52.2 µM (active)

Cc1ccc(C(=O)NN2C(=O)/C(=C/c3cccn3C)SC2=S)cc1
EC50 [15]: 0.09 µM (not active)

Cc1c(CCO)c(O)oc2nnc(-c3ccccc3)c1-2
IC50 [18]: > 80 µM (inactive)

CC1(c2nnc(-c3cccc(Cl)c3)o2)CC(c2cccc(Cl)c2)=NO1 (stereo unspecified)
IC50 [18]: > 80 µM (inactive)

C[C@@H]1CCCCO[C@@H](CN(C)C(=O)c2ccccc2)[C@H](C)CN([C@H](C)CO)C(=O)c2cc(NC(=O)Nc3ccc(C(F)(F)F)cc3)ccc2O1
AC50 (Paired box protein Pax-8): 3.53 µM (active)
AC50 [6]: 36.5 µM (active)
AC50 [7]: > 70 µM (inactive)
